Measured values taken from US6444670B2 (Wyeth, priority 1998, dated 2002).

Assays:
diabetic (ob/ob) mice = test: Blood glucose lowering in diabetic (ob/ob) mice; type: in vivo, mouse; conditions: for % Change Glucose from Vehicle: plasma glucose
Excerpt: The procedures used and results obtained are briefly described below.
The non-insulin dependent diabetic (NIDDM) syndrome can be typically characterizes by obesity, hyperglycemia, abnormal insulin secretion, hyperinsulinemia and insulin resistance.
In each test procedure, mice [Male or female ob/ob (C57 B1/6J) and their lean litermates (ob/+ or +/+, Jackson Laboratories) ages 2 to 5 months (10 to 65 g)] of a similar age were randomized according to body weight into 4 groups of 10 mice. The mice were housed 5 per cage and are maintained on normal rodent chow with water ad libitum. Mice received test compound daily by gavage (suspended in 0.5 ml of 0.5% methyl cellulose); dissolved in the drinking water; or admixed in the diet. The dose of compounds given ranges from 2.5 to 200 mg/kg body weight/day. The dose is calculated based on the fed weekly body weight and is expressed as active moiety. […] Control mice received vehicle only.
On the morning of Day 4, 7 or 14 two drops of blood (approximetly 50 ul) were collected into sodium fluoride containing tubes either from the tail vein or after decapitation. For those studies in which the compound was administered daily by gavage the blood samples were collected 0 and 4 hours after compound administration. The plasma was isolated by centrifugation and the concentration of glucose is measured enzymatically on an Abbott V. P. Analyzer.
For each mouse, the percentage change in plasma glucose on Day 4, 7 or 14 is calculated relative to the mean plasma glucose of the vehicle treated mice. Analysis of variance followed by Dunett's Comparison Test (one-tailed) are used to estimate the significant difference between the plasma glucose values from the control group and the individual compound treated groups (CMS SAS Release 5.18).

[1] = biological target: T1, Human recombinant PTP1B (hPTP1B) (Homo sapiens, UniProt P18031); type: biochemical
T1 construct: made in house
T1 sequence (P18031 1-435): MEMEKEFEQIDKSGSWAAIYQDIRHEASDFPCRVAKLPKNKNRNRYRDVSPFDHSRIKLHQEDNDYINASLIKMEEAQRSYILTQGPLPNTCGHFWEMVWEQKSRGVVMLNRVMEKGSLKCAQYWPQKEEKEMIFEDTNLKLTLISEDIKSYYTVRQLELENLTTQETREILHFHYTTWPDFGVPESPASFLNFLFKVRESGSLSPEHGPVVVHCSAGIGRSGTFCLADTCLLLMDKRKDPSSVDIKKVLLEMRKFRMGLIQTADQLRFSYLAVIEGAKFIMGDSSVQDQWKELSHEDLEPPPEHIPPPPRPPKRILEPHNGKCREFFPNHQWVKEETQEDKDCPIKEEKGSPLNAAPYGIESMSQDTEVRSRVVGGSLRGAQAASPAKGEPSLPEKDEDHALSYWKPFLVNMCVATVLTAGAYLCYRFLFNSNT

[2] = system: rat hepatic microsomal PTPases; conditions: 50 μM compound
[3] = dose 25 mg/Kg, (a) = no significant activity (p < 0.05) at this dose
[4] = dose 10 mg/Kg, (a) = no significant activity (p < 0.05) at this dose

Row | SMILES | IC50 [1] [nM] | % Change Glucose from Vehicle (diabetic (ob/ob) mice; [3]) | % Change from Control [2] [%] | further results
1 | CC(=O)Oc1ccc(-c2c3ccccc3cc3sc(C)c(C)c23)cc1 [Example 6, Acetic Acid 4-(2,3-dimethyl-naphtho[2,3-b]thiophen-4-yl)-phenyl ester] | – | – | – | melting point: 147 to 150 °C
2 | CC1(COc2ccc(CC3SC(=O)NC3=O)cc2)CCCCC1 (centres unmarked) [Ciglitazone, 5-(4-(1-methylcyclohexylmethoxy)benzyl)-2,4-dione, reference compound] | – | – | – | % Change Insulin from Vehicle (diabetic (ob/ob) mice; dose 100 mg/Kg): −39 ^ %; % Change Glucose from Vehicle (diabetic (ob/ob) mice; dose 100 mg/Kg): −43 ^ %
3 | CC(=O)Oc1ccc(-c2c3ccccc3c(Br)c3sc(C)c(C)c23)cc1 [Example 7, Acetic Acid 4-(9-bromo-2,3-dimethyl-naphtho[2,3-b]thiophen-4-yl)-phenyl ester] | – | – | – | melting point: 190 to 191 °C
4 | Cc1sc2c(Br)c3ccccc3c(-c3ccc(O[C@H](Cc4ccccc4)C(=O)O)c(C(C)C)c3)c2c1C [Example 44, (R)-2-[4-(9-Bromo-2,3-dimethyl-naphtho[2,3-b]thiophen-4-yl)-6-isopropyl-phenoxy]-3-phenyl-propionic acid] | 237 | −17.2 ^ % | −68.50 | –
5 | Cc1sc2c(Sc3ccccc3)c3ccccc3c(-c3cc(Br)c(O[C@H](Cc4ccccc4)C(=O)O)c(Br)c3)c2c1C [Example 33, (R)-2-[2,6-dibromo-4-(2,3-dimethyl-9-phenylsulfanyl-naphtho[2,3-b]thiophen-4-yl)-phenoxy]-3-phenyl-propionic acid] | 29 | −21.10 (a) % | −61.92 | % Change Insulin from Vehicle (diabetic (ob/ob) mice; [3]): −39.3 ^ %
6 | COc1c(N)cc(-c2c3ccccc3c(Br)c3sc(C)c(C)c23)cc1Br [Example 58, 3-Bromo-5-(9-bromo-2,3-dimethyl-naphtho[2,3-b]thiophen-4-yl)-2-methoxy-phenylamine] | – | – | – | melting point: 198 to 200 °C
7 | Cc1sc2c(Br)c3ccccc3c(-c3cc(Br)c(O[C@H](Cc4ccccc4)C(=O)O)c(Br)c3)c2c1C [Example 29, (R)-2-[2,6-Dibromo-4-(9-bromo-2,3-dimethyl-naphtho[2,3-b]thiophen-4-yl)-phenoxy]3-phenyl-propionic acid] | 115 | −38.18 ^ % | −83.54 | % Change Insulin from Vehicle (diabetic (ob/ob) mice; dose 10 mg/Kg): −48.11 ^ %; % Change Insulin from Vehicle (diabetic (ob/ob) mice; [3]): −80.50 ^ %; % Change Insulin from Vehicle (diabetic (ob/ob) mice; dose 100 mg/Kg): −89.59 ^ %; % Change Glucose from Vehicle (diabetic (ob/ob) mice; [4]): −18.6 (a) %; % Change Glucose from Vehicle (diabetic (ob/ob) mice; dose 100 mg/Kg): −48.63 ^ %
8 | CCc1cc(-c2c3ccccc3c(Br)c3sc(C)c(C)c23)cc(CC)c1O[C@H](Cc1ccccc1)C(=O)O [Example 61, (R)-2-[4-(9-Bromo-2-,3-dimethyl-naphtho[2,3-b]thiophen-4-yl)-2,6-diethyl-phenoxy]-3-phenyl-propionic acid] | 164 | – | – | % Change Glucose from Vehicle (diabetic (ob/ob) mice; dose 10 mg/Kg, measured at 0 hour): −32.8 (c) %
9 | Cc1sc2c(Br)c3ccccc3c(-c3cc(Br)c(O[C@H](CCc4ccccc4)C(=O)O)c(Br)c3)c2c1C [Example 32, (R)-2-[2,6-Dibromo-4-(9-bromo-2,3-dimethyl-naphtho[2,3-b]thiophen-4-yl)-phenoxy]-4-phenyl-butyric acid] | 60 | −15.68 (a) % | −89.41 | % Change Insulin from Vehicle (diabetic (ob/ob) mice; [3]): −48.35 ^ %
10 | Cc1sc2c(Br)c3ccccc3c(-c3cc(Br)c(O[C@H](Cc4ccccc4)C(=O)O)c(C(C)C)c3)c2c1C [Example 40, (R)-2-[2-Bromo-4-(9-bromo-2,3-dimethyl-naphtho[2,3-b]thiophen-4-yl)-6-isopropyl-phenoxy]-3-phenyl-propionic acid] | 110 | – | −83.88 | % Change Insulin from Vehicle (diabetic (ob/ob) mice; dose 100 mg/Kg): −90.80 ^ %; % Change Glucose from Vehicle (diabetic (ob/ob) mice; dose 100 mg/Kg): −28.20 ^ %
11 | Cc1sc2cc3ccccc3c(-c3ccc(O[C@H](Cc4ccccc4)C(=O)O)c(C4CCCC4)c3)c2c1C [Example 45, (R)-2-[2-Cyclopentyl-4-(2,3-dimethyl-naphtho[2,3-b]thiophen-4-yl)-phenoxy]-3-phenyl-propionic acid] | 203 | – | −94.50 | –
12 | Cc1sc2c(Sc3ccccc3)c3ccccc3c(-c3cc(Br)c(O)c(Br)c3)c2c1C [Example 13, 2,6-Dibromo-4-(2,3-dimethyl-9-phenylsulfanyl-naphtho[2,3-b]thiophen-4-yl)-phenol] | – | – | – | melting point: 237 to 239 °C
13 | CCN(CC)Cc1sc2c(Br)c3ccccc3c(-c3cc(Br)c(O[C@H](Cc4ccccc4)C(=O)O)c(Br)c3)c2c1C [Example 37, (R)-2-[2,6-Dibromo-4-(9-bromo-2-diethylaminomethyl-3-methyl-naphtho[2,3-b]thiophen-4-yl)-phenoxy]-3-phenyl-propionic acid] | 352 | – | −49.83 | –
14 | Cc1sc2c(Br)c3ccccc3c(-c3ccc(O[C@H](Cc4ccccc4)C(=O)O)c(F)c3)c2c1C [Example 52, (R)-2-[4-(9-Bromo-2,3-dimethyl-naphtho[2,3-b]thiophen-4-yl)-2-fluoro-phenoxy]-3-phenyl-propionic acid] | 287 | – | −87.66 | –
15 | Cc1sc2c(Br)c3ccccc3c(-c3cc(Br)c(OC(Cc4ccccc4)C(=O)O)c([N+](=O)[O-])c3)c2c1C (centres unmarked) [Example 38, [2-Bromo-4-(9-bromo-2,3-dimethyl-naphtho[2,3-b]thiophen-4-yl)-2-nitro-phenoxy]-3-phenyl-propionic acid] | 299 | – | −57.74 | –
16 | CCc1cc(-c2c3ccccc3c(Br)c3sc(C)c(C)c23)cc(Br)c1O[C@H](Cc1ccccc1)C(=O)O [Example 43, (R)-2-[2-Bromo-4-(9-bromo-2,3-dimethyl-naphtho[2,3-b]thiophen-4-yl)-6-ethyl-phenoxy]-3-phenyl-propionic acid] | 171 | −45.2 ^ % | −78.84 | –
17 | Cc1sc2cc3ccccc3c(-c3ccc(O[C@H](Cc4ccccc4)C(=O)O)c(C(C)C)c3)c2c1C [Example 41, (R)-2-[4-(2,3-dimethyl-naphtho[2,3-b]thiophen-4-yl)-2-isopropyl-phenoxy]-3-phenyl-propionic acid] | 729 | – | −39.60 | –
18 | Cc1c(CN2CCOCC2)sc2c(Br)c3ccccc3c(-c3cc(Br)c(OC(Cc4ccccc4)C(=O)O)c(Br)c3)c12 (centres unmarked) [Example 35, 2-[2,6-Dibromo-4-(9-bromo-3-methyl-2-morpholin-4-ylmethyl-naphtho[2,3-b]thiophen-4-yl)-phenoxy]-3-phenyl-propionic acid] | 273 | −25.58 ^ % | −58.85 | % Change Insulin from Vehicle (diabetic (ob/ob) mice; [3]): −2.98 (a) %
19 | CCC(C)c1cc(-c2c3ccccc3c(Br)c3sc(C)c(C)c23)cc(Br)c1O[C@H](Cc1ccccc1)C(=O)O (stereo partly drawn) [Example 42, (R)-2-[2-Bromo-4-(9-bromo-2,3-dimethyl-naphtho[2,3-b]thiophen-4-yl)-6-sec-butyl-phenoxy]-3-phenyl-propionic acid] | 89 | −32.5 ^ % | −63.41 | –
20 | Cc1cc(-c2c3ccccc3c(Br)c3sc(C)c(C)c23)cc(C)c1O[C@H](Cc1ccccc1)C(=O)O [Example 49, (R)-2-[4-(9-Bromo-2,3-dimethyl-naphtho[2,3-b]thiophen-4-yl)-2,6-dimethyl-phenoxy]-3-phenyl-propionic acid] | – | – | −89.36 | % Change Glucose from Vehicle (diabetic (ob/ob) mice; [4]): −35.1 ^ %
